What was measured:
Format in all cases: in vivo
[1] = Masking of typical bitter substances from citrus products; bitterness rated by a group of experts; conditions: for Assessment Bitter (0-10) With neoflavonoid: amount of neoflavonoid not given; for Relative masking (bitter): with vs without neoflavonoid
From the text: Masking of Typical Bitter Substances from Citrus Products
For quantifying the reduction (i.e. the masking or the decrease) of the bitter impression in a sample, the bitterness of a solution containing the bitter substances named in the following Table 2 in column 1 were each compared with a sample, which contained the corresponding bitter substance and additionally the respectively specified amount of a neoflavonoid (column 2) by a group of experts (classification: 1 [not bitter] to 10 [extremely bitter]). For the analysis, i. e. the calculation of the reduction (in %) of the bitter impression, the respective average values of the assessments of the group of experts were used.

[2] = Masking the perception of the acid and the bitterness in orange juice; panelists rate sweet, bitter and sour on a 0-10 scale; conditions: for Assessment (0-10) Bitter / Assessment (0-10) Sour / Assessment (0-10) Sweet: scale 0-10
From the text: The panelists (n=6-8) thereby evaluate the 3 attributes “sweet”, “bitter” and “sour” on an unstructured scale of 0 (no taste) to 10 (strong taste). In one sample, the panelists receive the orange juice alone, in a further sample, they received the orange juice which was supplemented with an amount of neoflavonoids as listed in one of the tables. Thereby, the order is arbitrary and not known to the panelists before.
In the following Tables 1A to 1D, the results of the evaluations are summed up.

[3] = Masking of the perception of the acid in citrus containing carbonated drinks; panelists rate sour on a 0-10 scale
From the text: Masking of the Perception of the Acid in Citrus Containing Carbonated Drinks
For quantifying the reduction (i. e. the masking or the decrease) of the perception of the acid in a sample, the panelists (n=6-8) assess the attribute “sour” on a non-structured scale from 0 (no taste)-10 (strong taste). The panelists receive in one sample the citrus/-lime soft drink reduced in sugar alone, in a further sample the soft drink, to which an amount of neoflavonoids specified in Table 3 has been added. Thereby, the order is arbitrary and not known to the panelists before. In the following Table, the results of the evaluations are summed up.

[4] = HLB Hamlin orange juice, 15 ppm neoflavonoid vs juice alone
[5] = Orange juice comprising 7.8 ppm limonin, 10 ppm neoflavonoid vs juice alone
[6] = Orange juice comprising 7.8 ppm limonin, 10 ppm neoflavonoid, n=6-8
[7] = Orange juice, oranges infected with HLB from early ripening Hamlin March 2014, 15 ppm neoflavonoid, n=6-8
[8] = Trial 1B, orange juice comprising 7 ppm limonin, 20 ppm neoflavonoid vs juice alone
[9] = Trial 1B, orange juice comprising 7 ppm limonin, 20 ppm neoflavonoid
[10] = Trial 1C, orange juice comprising 7 ppm limonin, 25 ppm neoflavonoid vs juice alone
[11] = Trial 1C, orange juice comprising 7 ppm limonin, 25 ppm neoflavonoid
[12] = Trial 1D, orange juice comprising 7 ppm limonin, 25 ppm neoflavonoid vs juice alone
[13] = Trial 1D, orange juice comprising 7 ppm limonin, 25 ppm neoflavonoid

SMILES: COc1cc(C2CC(=O)Oc3cc(O)cc(O)c32)ccc1O (stereo not shown) [1:1 mixture from component 9 and 10, 5,7-dihydroxy-4-(4-hydroxy-3-methoxy-phenyl)chroman-2-on]
- Assessment Bitter (0-10) With neoflavonoid ([1]; solution of 10 ppm limonin): 2.5
- Relative masking (bitter) ([1]; solution of 10 ppm limonin): −19%
- Assessment Bitter (0-10) With neoflavonoid ([1]; solution of 50 ppm poncirin): 3.5
- Relative masking (bitter) ([1]; solution of 50 ppm poncirin): −29%
- Assessment Bitter (0-10) With neoflavonoid ([1]; solution of 75 ppm naringin): 2.9
- Relative masking (bitter) ([1]; solution of 75 ppm naringin): −24%
- Relative change Bitter [2, 4]: −36%
- Relative change Sour [2, 4]: −19%
- Relative change Sweet [2, 4]: +22%
- Relative change Bitter [2, 5]: −46%
- Relative change Sour [2, 5]: −35%
- Relative change Sweet [2, 5]: +52%
- Assessment (0-10) Bitter [2, 6]: 2.5
- Assessment (0-10) Sour [2, 6]: 3.5
- Assessment (0-10) Sweet [2, 6]: 6.0
- Assessment (0-10) Bitter [2, 7]: 2.7
- Assessment (0-10) Sour [2, 7]: 3.5
- Assessment (0-10) Sweet [2, 7]: 3.8

SMILES: O=C1CC(c2ccc(O)cc2)c2c(O)cc(O)cc2O1 (stereo not shown) [1:1 mixture from component 11 and 12, 5,7-dihydroxy-4-(4-hydroxyphenyl)-chroman-2-on]
- Assessment Bitter (0-10) With neoflavonoid ([1]; solution of 10 ppm limonin): 2.8
- Relative masking (bitter) ([1]; solution of 10 ppm limonin): −38%
- Assessment Bitter (0-10) With neoflavonoid ([1]; solution of 50 ppm poncirin): 3.6
- Relative masking (bitter) ([1]; solution of 50 ppm poncirin): −8%
- Assessment Bitter (0-10) With neoflavonoid ([1]; solution of 75 ppm naringin): 3.7
- Relative masking (bitter) ([1]; solution of 75 ppm naringin): −18%
- Relative change Bitter [2, 8]: −45%
- Relative change Sour [2, 8]: −33%
- Relative change Sweet [2, 8]: +13%
- Assessment (0-10) Bitter [2, 9]: 2.8
- Assessment (0-10) Sour [2, 9]: 3.1
- Assessment (0-10) Sweet [2, 9]: 4.8

SMILES: O=C1CC(c2ccc(O)cc2)c2ccc(O)cc2O1 (stereo not shown) [1:1 mixture from component 29 and 30, 7-hydroxy-4-(4-hydroxy-phenyl)-chroman-2-on]
- Relative change Bitter [2, 10]: −45%
- Relative change Sour [2, 10]: −33%
- Relative change Sweet [2, 10]: +13%
- Assessment (0-10) Bitter [2, 11]: 2.4
- Assessment (0-10) Sour [2, 11]: 3.0
- Assessment (0-10) Sweet [2, 11]: 5.3

SMILES: COc1cc(C2CC(=O)Oc3cc(O)cc(OC)c32)ccc1O (stereo not shown) [1:1 mixture from component 41 and 42, 7-hydroxy-4-(4-hydroxy-3-methoxy-phenyl)-5-methoxy-chroman-2-on]
- Relative masking (sour) ([3]; Carbonated soft drink (7° Brix, 0.2% citric acid), with vs without neoflavonoid, p < 0.1): −17%
- Assessment Sour (0-10) With neoflavonoid ([3]; Carbonated soft drink (7° Brix, 0.2% citric acid, 0.0001% citrus oil, 0.0001% lime oil, 0.06% citrus aroma), n=6-8): 3.4
- Assessment Bitter (0-10) With neoflavonoid ([1]; solution of 100 ppm naringin): 3.7
- Relative masking (bitter) ([1]; solution of 100 ppm naringin): −15%
- Relative change Bitter [2, 12]: −43%
- Relative change Sour [2, 12]: −13%
- Relative change Sweet [2, 12]: +43%
- Assessment (0-10) Bitter [2, 13]: 2.7
- Assessment (0-10) Sour [2, 13]: 3.7
- Assessment (0-10) Sweet [2, 13]: 5.9
